The structures appear in SMILES notation. Numbered stars: 1 amine (or outer) side, 2 acyl side, 3 side chain; on linkers, the order of the positions; unused ones are H or OH. Bridge positions count the residues as written; N and C are the ends. Side chains are listed from the residue outwards. Peptide text beside a SMILES is read from it. * marks the point of attachment. C20 diacid = O=C(O)CCCCCCCCCCCCCCCCCCC(=O)*; γGlu = O=C(O)[C@H](CCC(=O)[*:2])N[*:1]; AEEA = NCCOCCOCC(=O)O

In patent US9023789B2, “Amylin analogs and pharmaceutical compositions thereof” (Novo Nordisk A/S, priority 2012, dated 2015) one finds IC50 data, which are given here for 5 compounds.

This test addresses T1, human calcitonin receptor (Homo sapiens, UniProt P30988).
T1 construct: expressed in transfected cells
T1 sequence (P30988 25-474): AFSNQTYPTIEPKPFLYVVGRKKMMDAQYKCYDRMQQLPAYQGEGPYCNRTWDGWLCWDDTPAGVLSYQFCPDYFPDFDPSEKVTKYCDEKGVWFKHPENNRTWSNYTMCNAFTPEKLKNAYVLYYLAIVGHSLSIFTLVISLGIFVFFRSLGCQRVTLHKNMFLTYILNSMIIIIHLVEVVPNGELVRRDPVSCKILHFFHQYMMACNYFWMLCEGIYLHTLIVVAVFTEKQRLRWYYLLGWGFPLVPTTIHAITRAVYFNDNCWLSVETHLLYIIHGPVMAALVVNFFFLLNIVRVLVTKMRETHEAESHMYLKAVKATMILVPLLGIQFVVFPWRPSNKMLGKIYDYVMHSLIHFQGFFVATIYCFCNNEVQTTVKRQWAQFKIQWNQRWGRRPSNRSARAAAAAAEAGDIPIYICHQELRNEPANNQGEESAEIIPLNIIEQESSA
Briefly: ASSAY (VII) binding to the human calcitonin receptor (SPA, 125I-Calcitonin).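 Also: cell membranes (35 ng/µL) combined with SPA beads in 40 µL of pH 7.4 Hepes buffer, 384-well format, signal counted on a TopCounter instrument.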 To be noted: read-out: hCTR bind IC50.
Take `CC[C@H](C)[C@H](NC(=O)[C@H](C)NC(=O)CNC(=O)[C@H](Cc1ccccc1)NC(=O)[C@H](CC(N)=O)NC(=O)[C@@H]1CCCN1C(=O)[C@H](CO)NC(=O)[C@H](CO)NC(=O)[C@H](Cc1c[nH]cn1)NC(=O)[C@H](CCCNC(=N)N)NC(=O)[C@H](CC(C)C)NC(=O)[C@H](Cc1ccccc1)NC(=O)[C@H](Cc1c[nH]cn1)NC(=O)[C@H](C)NC(=O)[C@H](CC(C)C)NC(=O)[C@H](CCCNC(=N)N)NC(=O)[C@H](CCC(N)=O)NC(=O)[C@@H](NC(=O)[C@H](C)NC(=O)[C@@H]1CSSC[C@H](NC(=O)[C@@H](N)CCCCNC(=O)COCCOCCNC(=O)CC[C@H](NC(=O)CCCCCCCCCCCCCCCCCCC(=O)O)C(=O)O)C(=O)N[C@@H](CC(N)=O)C(=O)N[C@@H]([C@@H](C)O)C(=O)N[C@@H](C)C(=O)N[C@@H]([C@@H](C)O)C(=O)N1)[C@@H](C)O)C(=O)N1CCC[C@H]1C(=O)N[C@@H](CO)C(=O)N[C@@H](CO)C(=O)N[C@H](C(=O)N[C@@H](CC(N)=O)C(=O)N[C@H](C(=O)NCC(=O)N[C@@H](Cc1c[nH]cn1)C(=O)N[C@@H](CC(N)=O)C(=O)N[C@H](C(=O)N[C@@H](Cc1ccc(O)cc1)C(N)=O)[C@@H](C)O)C(C)C)[C@@H](C)O` [Example 80] (H-K([AEEA-γGlu-C20 diacid])CNTATCATQRLAHFLRHSSPNFGAIPSSTNVGHNTY-NH2; disulfide 2-7; N-terminus assumed): the IC50 (commonly the concentration needed to halve the response being measured) is 19.8 nM.
With `CC[C@H](C)[C@H](NC(=O)[C@H](C)NC(=O)CNC(=O)[C@H](Cc1ccccc1)NC(=O)[C@H](CC(N)=O)NC(=O)[C@@H]1CCCN1C(=O)[C@H](CO)NC(=O)[C@H](CO)NC(=O)[C@H](Cc1c[nH]cn1)NC(=O)[C@H](CCCNC(=N)N)NC(=O)[C@H](CC(C)C)NC(=O)[C@H](Cc1ccccc1)NC(=O)[C@H](Cc1c[nH]cn1)NC(=O)[C@H](C)NC(=O)[C@H](CC(C)C)NC(=O)[C@H](CCCNC(=N)N)NC(=O)[C@H](CCC(N)=O)NC(=O)[C@@H](NC(=O)[C@H](C)NC(=O)[C@@H]1CSSC[C@H](NC(=O)[C@@H](N)CCCCNC(=O)CC[C@H](NC(=O)CCCCCCCCCCCCCCCCCCC(=O)O)C(=O)O)C(=O)N[C@@H](CC(N)=O)C(=O)N[C@@H]([C@@H](C)O)C(=O)N[C@@H](C)C(=O)N[C@@H]([C@@H](C)O)C(=O)N1)[C@@H](C)O)C(=O)N1CCC[C@H]1C(=O)N[C@@H](CO)C(=O)N[C@@H](CO)C(=O)N[C@H](C(=O)N[C@@H](CC(N)=O)C(=O)N[C@H](C(=O)NCC(=O)N[C@@H](Cc1c[nH]cn1)C(=O)N[C@@H](CC(N)=O)C(=O)N[C@H](C(=O)N[C@@H](Cc1ccc(O)cc1)C(N)=O)[C@@H](C)O)C(C)C)[C@@H](C)O` [Example 81] (H-K([γGlu-C20 diacid])CNTATCATQRLAHFLRHSSPNFGAIPSSTNVGHNTY-NH2; disulfide 2-7; N-terminus assumed), the concentration for half-maximal inhibition (IC50) came out at 23.6 nM.
`CC[C@H](C)[C@H](NC(=O)[C@H](C)NC(=O)CNC(=O)[C@H](Cc1ccccc1)NC(=O)[C@H](CC(N)=O)NC(=O)[C@@H]1CCCN1C(=O)[C@H](CO)NC(=O)[C@H](CO)NC(=O)[C@H](Cc1c[nH]cn1)NC(=O)[C@H](CCCNC(=N)N)NC(=O)[C@H](CC(C)C)NC(=O)[C@H](Cc1ccccc1)NC(=O)[C@H](Cc1c[nH]cn1)NC(=O)[C@H](C)NC(=O)[C@H](CC(C)C)NC(=O)[C@H](CCCNC(=N)N)NC(=O)[C@H](CCC(N)=O)NC(=O)[C@@H](NC(=O)[C@H](C)NC(=O)[C@@H]1CSSC[C@H](NC(=O)[C@@H](N)CCCCNC(=O)COCCOCCNC(=O)CC[C@H](NC(=O)CCCCCCCCCCCCCCCCCCC(=O)O)C(=O)O)C(=O)N[C@@H](CC(N)=O)C(=O)N[C@@H]([C@@H](C)O)C(=O)N[C@@H](C)C(=O)N[C@@H]([C@@H](C)O)C(=O)N1)[C@@H](C)O)C(=O)N1CCC[C@H]1C(=O)N[C@@H](CO)C(=O)N[C@@H](CO)C(=O)N[C@H](C(=O)N[C@@H](CC(N)=O)C(=O)N[C@H](C(=O)NCC(=O)N[C@@H](CCCNC(=N)N)C(=O)N[C@@H](CC(N)=O)C(=O)N[C@H](C(=O)N[C@@H](Cc1ccc(O)cc1)C(N)=O)[C@@H](C)O)C(C)C)[C@@H](C)O` [Example 84] (H-K([AEEA-γGlu-C20 diacid])CNTATCATQRLAHFLRHSSPNFGAIPSSTNVGRNTY-NH2; disulfide 2-7 (inferred); N-terminus assumed): the 50% inhibitory concentration (IC50) is 88.9 nM.
Next, `CC[C@H](C)[C@H](NC(=O)[C@H](C)NC(=O)CNC(=O)[C@H](Cc1ccccc1)NC(=O)[C@H](CC(N)=O)NC(=O)[C@@H]1CCCN1C(=O)[C@H](CO)NC(=O)[C@H](CO)NC(=O)[C@H](Cc1c[nH]cn1)NC(=O)[C@H](CCCNC(=N)N)NC(=O)[C@H](CC(C)C)NC(=O)[C@H](Cc1ccccc1)NC(=O)[C@H](CCC(=O)O)NC(=O)[C@H](C)NC(=O)[C@H](CC(C)C)NC(=O)[C@H](CCCNC(=N)N)NC(=O)[C@H](CCC(N)=O)NC(=O)[C@@H](NC(=O)[C@H](C)NC(=O)[C@@H]1CSSC[C@H](NC(=O)[C@@H](N)CCCCNC(=O)CC[C@H](NC(=O)CC[C@H](NC(=O)CCCCCCCCCCCCCCCCCCC(=O)O)C(=O)O)C(=O)O)C(=O)N[C@@H](CC(N)=O)C(=O)N[C@@H]([C@@H](C)O)C(=O)N[C@@H](C)C(=O)N[C@@H]([C@@H](C)O)C(=O)N1)[C@@H](C)O)C(=O)N1CCC[C@H]1C(=O)N[C@@H](CO)C(=O)N[C@@H](CO)C(=O)N[C@H](C(=O)N[C@@H](CC(N)=O)C(=O)N[C@H](C(=O)NCC(=O)N[C@@H](Cc1c[nH]cn1)C(=O)N[C@@H](CC(N)=O)C(=O)N[C@H](C(=O)N[C@@H](Cc1ccc(O)cc1)C(N)=O)[C@@H](C)O)C(C)C)[C@@H](C)O` [Example 87] (H-K([γGlu-γGlu-C20 diacid])CNTATCATQRLAEFLRHSSPNFGAIPSSTNVGHNTY-NH2; disulfide 2-7): 22.5 nM; `CC[C@H](C)[C@H](NC(=O)[C@H](C)NC(=O)CNC(=O)[C@H](Cc1ccccc1)NC(=O)[C@H](CC(N)=O)NC(=O)[C@@H]1CCCN1C(=O)[C@H](CO)NC(=O)[C@H](CO)NC(=O)[C@H](Cc1c[nH]cn1)NC(=O)[C@H](CCCNC(=N)N)NC(=O)[C@H](CC(C)C)NC(=O)[C@H](Cc1ccccc1)NC(=O)[C@H](C)NC(=O)[C@H](C)NC(=O)[C@H](CC(C)C)NC(=O)[C@H](CCCNC(=N)N)NC(=O)[C@H](CCC(N)=O)NC(=O)[C@@H](NC(=O)[C@H](C)NC(=O)[C@@H]1CSSC[C@H](NC(=O)[C@@H](N)CCCCNC(=O)CC[C@H](NC(=O)CCCCCCCCCCCCCCCCCCC(=O)O)C(=O)O)C(=O)N[C@@H](CC(N)=O)C(=O)N[C@@H]([C@@H](C)O)C(=O)N[C@@H](C)C(=O)N[C@@H]([C@@H](C)O)C(=O)N1)[C@@H](C)O)C(=O)N1CCC[C@H]1C(=O)N[C@@H](CO)C(=O)N[C@@H](CO)C(=O)N[C@H](C(=O)N[C@@H](CC(N)=O)C(=O)N[C@H](C(=O)NCC(=O)N1CCC[C@H]1C(=O)N[C@@H](CC(N)=O)C(=O)N[C@H](C(=O)N[C@@H](Cc1ccc(O)cc1)C(N)=O)[C@@H](C)O)C(C)C)[C@@H](C)O` [Example 94] (H-K([γGlu-C20 diacid])CNTATCATQRLAAFLRHSSPNFGAIPSSTNVGPNTY-NH2; disulfide 2-7 (inferred)): 6.86 nM.
